The target of experiment [1] is T1, Non-receptor tyrosine-protein kinase TNK1 (Homo sapiens) (UniProt Q13470).
T1 sequence (whole entry): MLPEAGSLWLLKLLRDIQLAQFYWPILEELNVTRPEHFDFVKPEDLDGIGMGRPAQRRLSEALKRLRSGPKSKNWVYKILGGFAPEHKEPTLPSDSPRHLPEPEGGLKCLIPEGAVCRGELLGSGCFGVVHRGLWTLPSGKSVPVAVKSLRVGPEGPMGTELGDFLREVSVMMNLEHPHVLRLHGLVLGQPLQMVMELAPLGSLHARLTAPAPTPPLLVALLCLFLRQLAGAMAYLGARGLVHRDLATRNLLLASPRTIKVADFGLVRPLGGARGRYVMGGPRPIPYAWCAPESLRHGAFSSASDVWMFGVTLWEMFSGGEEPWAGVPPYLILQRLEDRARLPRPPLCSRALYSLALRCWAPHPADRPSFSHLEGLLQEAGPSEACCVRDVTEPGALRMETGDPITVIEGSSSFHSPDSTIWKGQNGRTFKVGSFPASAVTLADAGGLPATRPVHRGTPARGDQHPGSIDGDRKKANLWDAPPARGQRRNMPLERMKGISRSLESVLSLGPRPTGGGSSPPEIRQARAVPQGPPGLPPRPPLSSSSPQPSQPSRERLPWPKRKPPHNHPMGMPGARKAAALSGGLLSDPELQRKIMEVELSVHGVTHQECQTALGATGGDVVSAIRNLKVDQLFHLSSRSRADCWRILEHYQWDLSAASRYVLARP
The experiment can be described thus: Inhibition of TNK1 (unknown origin) assessed as residual activity at 100 nM by KINOMEscan analysis relative to control.

For experiment [2], the target named is T2, Rhodopsin kinase GRK7 (Homo sapiens) (UniProt Q8WTQ7).
T2 sequence (whole entry): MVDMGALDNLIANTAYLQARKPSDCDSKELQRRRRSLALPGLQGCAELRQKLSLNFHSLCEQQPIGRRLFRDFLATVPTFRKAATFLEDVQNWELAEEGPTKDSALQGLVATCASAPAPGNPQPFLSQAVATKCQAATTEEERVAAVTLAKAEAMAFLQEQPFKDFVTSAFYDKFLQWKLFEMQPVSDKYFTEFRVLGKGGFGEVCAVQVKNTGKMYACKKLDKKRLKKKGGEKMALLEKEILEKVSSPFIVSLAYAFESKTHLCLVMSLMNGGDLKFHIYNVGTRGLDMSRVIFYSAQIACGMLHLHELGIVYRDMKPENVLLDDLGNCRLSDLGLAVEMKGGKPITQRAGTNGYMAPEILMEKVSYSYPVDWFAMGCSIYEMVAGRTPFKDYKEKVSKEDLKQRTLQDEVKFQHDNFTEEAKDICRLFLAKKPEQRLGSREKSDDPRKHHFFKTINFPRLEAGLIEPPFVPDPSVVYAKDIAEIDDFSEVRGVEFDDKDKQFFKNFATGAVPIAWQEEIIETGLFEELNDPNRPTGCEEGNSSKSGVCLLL
As to the kind of experiment: Inhibition of GRK7 (unknown origin) assessed as residual activity at 100 nM by KINOMEscan analysis relative to control.

Experiment [3] deals with Leukocyte tyrosine kinase receptor (Homo sapiens) (UniProt P29376). As to the kind of experiment: Inhibition of LTK (unknown origin) assessed as residual activity at 100 nM by KINOMEscan analysis relative to control.
Leukocyte tyrosine kinase receptor (Homo sapiens), sequence (P29376 whole entry): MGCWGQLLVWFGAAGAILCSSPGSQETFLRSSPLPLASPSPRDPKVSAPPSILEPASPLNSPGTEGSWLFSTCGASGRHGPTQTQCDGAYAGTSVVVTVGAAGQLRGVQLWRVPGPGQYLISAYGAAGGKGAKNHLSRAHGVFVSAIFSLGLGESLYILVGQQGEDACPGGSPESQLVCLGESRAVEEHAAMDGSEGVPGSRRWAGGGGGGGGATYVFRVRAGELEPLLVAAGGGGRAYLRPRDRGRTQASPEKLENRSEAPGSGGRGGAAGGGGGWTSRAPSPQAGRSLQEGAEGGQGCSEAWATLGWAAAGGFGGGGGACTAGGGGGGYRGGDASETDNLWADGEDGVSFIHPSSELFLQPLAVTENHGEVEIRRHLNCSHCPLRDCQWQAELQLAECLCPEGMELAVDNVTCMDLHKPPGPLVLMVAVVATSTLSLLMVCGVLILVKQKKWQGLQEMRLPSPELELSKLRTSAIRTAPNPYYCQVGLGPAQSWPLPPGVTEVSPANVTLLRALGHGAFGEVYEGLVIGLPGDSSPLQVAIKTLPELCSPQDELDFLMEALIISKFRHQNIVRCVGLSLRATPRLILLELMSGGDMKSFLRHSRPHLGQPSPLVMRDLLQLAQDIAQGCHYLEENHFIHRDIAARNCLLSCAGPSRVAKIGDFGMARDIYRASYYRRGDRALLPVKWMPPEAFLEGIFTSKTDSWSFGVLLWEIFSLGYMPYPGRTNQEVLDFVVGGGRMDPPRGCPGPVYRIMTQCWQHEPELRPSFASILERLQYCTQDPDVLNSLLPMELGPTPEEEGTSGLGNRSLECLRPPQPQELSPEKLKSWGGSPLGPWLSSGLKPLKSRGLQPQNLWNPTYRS
Experiment [4] deals with T3, Phosphatidylinositol 5-phosphate 4-kinase type-2 beta (Homo sapiens) (UniProt P78356).
T3 sequence (whole entry): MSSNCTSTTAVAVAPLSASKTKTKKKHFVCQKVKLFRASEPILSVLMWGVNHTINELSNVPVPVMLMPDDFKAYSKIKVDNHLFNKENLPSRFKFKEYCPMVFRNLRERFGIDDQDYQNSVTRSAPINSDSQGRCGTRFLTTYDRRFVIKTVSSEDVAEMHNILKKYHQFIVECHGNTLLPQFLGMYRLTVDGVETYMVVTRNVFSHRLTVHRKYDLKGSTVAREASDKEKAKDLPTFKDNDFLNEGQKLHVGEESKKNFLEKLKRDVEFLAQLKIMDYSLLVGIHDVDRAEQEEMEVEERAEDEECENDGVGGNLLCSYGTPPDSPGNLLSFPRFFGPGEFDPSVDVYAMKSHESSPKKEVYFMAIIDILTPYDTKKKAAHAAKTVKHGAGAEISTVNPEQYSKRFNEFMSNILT
As to the kind of experiment: Inhibition of PIP5K2B (unknown origin) assessed as residual activity at 100 nM by KINOMEscan analysis relative to control.

The subject of experiment [5] is Phosphatidylinositol 4,5-bisphosphate 3-kinase catalytic subunit alpha isoform (Homo sapiens), P42336 [Q546K]. The experiment can be described thus: Inhibition of PIK3CA Q546K mutant (unknown origin) assessed as residual activity at 100 nM by KINOMEscan analysis relative to control.

SMILES strings stand for the structures.

Phosphatidylinositol 4,5-bisphosphate 3-kinase catalytic subunit alpha isoform (Homo sapiens), P42336 [Q546K], sequence (P42336 whole entry Q546K, canonical isoform): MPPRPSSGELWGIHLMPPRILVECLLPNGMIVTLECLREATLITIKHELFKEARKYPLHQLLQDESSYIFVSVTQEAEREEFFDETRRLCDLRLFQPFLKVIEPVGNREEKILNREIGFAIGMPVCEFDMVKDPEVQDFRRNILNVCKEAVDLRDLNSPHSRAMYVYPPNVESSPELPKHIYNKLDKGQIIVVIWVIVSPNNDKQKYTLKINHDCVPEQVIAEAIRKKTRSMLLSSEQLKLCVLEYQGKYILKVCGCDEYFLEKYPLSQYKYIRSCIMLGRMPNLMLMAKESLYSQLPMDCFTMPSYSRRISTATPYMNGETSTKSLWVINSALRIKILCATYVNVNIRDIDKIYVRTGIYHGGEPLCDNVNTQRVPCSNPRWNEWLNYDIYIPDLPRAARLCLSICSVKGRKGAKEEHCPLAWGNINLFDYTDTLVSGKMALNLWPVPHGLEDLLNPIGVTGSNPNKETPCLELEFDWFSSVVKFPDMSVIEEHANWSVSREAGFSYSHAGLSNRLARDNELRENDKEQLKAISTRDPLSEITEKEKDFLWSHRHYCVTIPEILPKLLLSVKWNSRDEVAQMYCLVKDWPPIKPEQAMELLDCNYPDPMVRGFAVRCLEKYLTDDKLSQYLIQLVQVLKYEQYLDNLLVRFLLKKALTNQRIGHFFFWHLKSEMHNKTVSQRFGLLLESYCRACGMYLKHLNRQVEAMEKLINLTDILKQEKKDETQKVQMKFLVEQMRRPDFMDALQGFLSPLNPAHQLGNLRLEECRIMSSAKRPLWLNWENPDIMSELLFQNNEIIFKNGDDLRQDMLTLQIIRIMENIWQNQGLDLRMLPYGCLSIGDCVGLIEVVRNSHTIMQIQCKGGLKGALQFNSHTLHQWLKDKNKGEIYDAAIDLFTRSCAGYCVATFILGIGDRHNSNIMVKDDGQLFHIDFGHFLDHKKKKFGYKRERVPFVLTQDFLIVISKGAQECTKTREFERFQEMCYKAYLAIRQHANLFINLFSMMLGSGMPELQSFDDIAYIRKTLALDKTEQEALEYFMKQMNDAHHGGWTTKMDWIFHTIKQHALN

For `COc1cc2ncnc(N[C@H](C)c3cccc4ccccc34)c2cc1OC`, the Activity turned out to be 86% in experiment [1]; 84% in experiment [2]; 97% in experiment [3]; 91% in experiment [4]; 70% in experiment [5].

The values above are taken from ChEMBL document CHEMBL5678818, “Discovery of potent SOS1 inhibitors that block RAS activation via disruption of the RAS-SOS1 interaction” (Proc Natl Acad Sci U S A, 2019).
